Values of other authors in patent US20260216071A1, “NANOPARTICULATE FORMULATION” (NEWIMMUNE II, LLC, priority 2022, published 2026).

Compound: CCCCc1nc(Cl)c(CO)n1Cc1ccc(-c2ccccc2-c2nn[nH]n2)cc1 [Losartan, (2-butyl-4-chloro-1-{[2′-(1H-tetrazol-5-yl)biphenyl-4-yl]methyl}-1H-imidazol-5-yl) methanol]
- absorption following oral administration: well absorbed
